Test results: patent US6369297B1, “Inducible one-component plant gene tagging” (Academia Sinica, priority 2000, dated 2002)

What was measured:
INAc transposition = experiment: 5-azacytidine as second inducer of transposition in tobacco seedlings harboring INAc; assay type: in vivo; conditions: 0.1 mM 5-azacytidine combined with 1 mM SA
Description: Other inducers. Given that 5-azacytidine was recently shown to enhance Ac excision in transformed plants (Scortecci et al., Plant Cell Physiol. 38:336-343, 1997), the use of this agent was examined as a second inducer to trigger transposition events in tobacco seedlings harboring INAc.

[1] = tested on: INAc transposition (PR-1a::TPase); experiment: SA induction of INAc transposition in transgenic tobacco calli (luciferase activity of regenerated shoots); assay type: cell-based; conditions: for shoots exhibiting high luciferase activity: line IK; for shoots with luciferase activity (transposition frequency): lines IA, IC, IM1, IN1, IP1, IR1; for shoots exhibiting luciferase activity out of shoots from SA-treated calli: 0.1 and 1 mM SA pooled
Procedure: (§1) Assay of reporter gene activities. Luciferase activity was determined as described in Howell et al., “Use of the firefly luciferase gene as a reporter of gene expression in plants,” In: Gelvin et al., eds, Plant Molecular Biology Manual, pp. B8/1-B8/11, Kluwer Academic Publishers, Dordrecht, 1989; using a Lumat LB 9501 luminometer (Berthold, Munich, Germany). For imaging of luciferase activity, hygromycin-resistant (Hyg^R) seedlings were sprayed with luciferin, incubated in the dark for 5 minutes, and then placed under a charge-coupled device camera (ChemiImager 4000; Alpha Innotech, San Leandro, Calif.) for detection of luminescence. Image acquisition and processing were performed with AlphaEase software (Alpha Innotech). Exposure time was 30 minutes.
Induction of INAc transposition. […] The effect of SA on INAc transposition was determined by incubating Hyg^R calli with a diameter of 0.5 to 1 cm for various times on callus regeneration medium containing either 0.1 or 1 mM SA. The calli for the transformed lines IA, IC, and IK were directly divided from the primary regenerated calli, which were large and generated many primary transformed shoots. For transformed lines IF, IM, IN, IP, and IR, the calli were obtained from the primary transformants IF1, IM1, IN1, IP1, and IR1. Leaf disks were excised and incubated on callus regeneration medium to yield enough calli for induction experiments. The calli were treated with 0.1 mM SA for 60 days, or were incubated with 1 mM SA for 10 days and then transferred to normal callus regeneration medium for an additional 50 days. As a control, calli were incubated on normal callus regeneration medium for 60 days. Luciferase activity was measured in the shoots that developed from the calli during incubation and was expressed as −, +, ++, or +++ as described in Table 2.
The numerical values in Table 2 indicate the number of LUC^+ shoots that were regenerated from SA-treated tobacco calli. Symbols denoting the amount of luciferase activity (RLU per microgram of total protein) are as follows: (−) <50 (with no typical luciferase activity kinetics); (+) 50 to 500 RLU; (++) 500 to 5000 RLU; and (+++)>5000 RLU.

[2] = tested on: INAc transposition (PR-1a::TPase); experiment: SA induction of INAc transposition in flowering tissue; LUC assay of HygR R1 progeny; assay type: in vivo, tobacco
Procedure: as §1
Analysis of SA-induced transposition in R1 progeny of transformed tobacco plants. An important feature of an inducible transposable element is its susceptibility to induced transposition in germinal tissue. Such susceptibility markedly increases the probability of success of transposon tagging in the isolation of important plant genes. To determine the effectiveness of INAc for gene tagging, the induction of transposition in germ-line tissue was studied using 14 transformed tobacco plants from lines IA, IM, IN, and IP. […] The flowering tissues of plants were sprayed with SA at concentrations of 50, 5, or 1 mM, and after 2 hours these tissues were watered to remove SA. […] The R1 progeny was analyzed by comparing the germination frequency apparent on normal germination medium with that observed on germination medium containing hygromycin B, as summarized in Table 3.
The proportion of LUC^+ seedlings after selection with hygromycin B was next determined. […] A large proportion of LUC^+ seedlings was apparent for transformed plants treated with SA (Table 3).
With this approach, the efficiency of INAc transposition was determined to be 0.2, 0.7, and 3.1% for transformed plants treated with 1, 5, and 50 mM SA, respectively, as shown in Table 4.

[3] = tested on: transformed tobacco plants; experiment: Germination frequency of R1 progeny and fruiting of SA-treated transformed tobacco plants; assay type: in vivo
Procedure: An important feature of an inducible transposable element is its susceptibility to induced transposition in germinal tissue. Such susceptibility markedly increases the probability of success of transposon tagging in the isolation of important plant genes. To determine the effectiveness of INAc for gene tagging, the induction of transposition in germ-line tissue was studied using 14 transformed tobacco plants from lines IA, IM, IN, and IP. […] The R1 progeny was analyzed by comparing the germination frequency apparent on normal germination medium with that observed on germination medium containing hygromycin B, as summarized in Table 3.
Capsules are designated A through E.

For `Nc1ncn([C@@H]2O[C@H](CO)[C@@H](O)[C@H]2O)c(=O)n1` [5-azacytidine], the “transposition efficiency versus treatment with SA alone” value (INAc transposition) was “higher”.

In the case of `O=C(O)c1ccccc1O` [SA, salicylic acid], the “shoots exhibiting medium (++) luciferase activity” value ([1]; 0.1 mM SA, IA and IP1 calli, two out of nine shoots) is reported as 22%, the “shoots exhibiting high luciferase activity” value ([1]; 0.1 mM SA, 1 out of 9 shoots) is reported as 11% and the “shoots with luciferase activity (transposition frequency)” value ([1]; 0.1 mM SA, 33 out of 45 shoots) is reported as 73%. The “induction of PR-1a::TPase expression and transposition events” value ([1]; 0.1 mM SA, tobacco calli) was “sufficient to induce the expression of PR-1a::TPase”, the “shoots exhibiting medium (++) or high (+++) luciferase activity” value ([1]; 1 mM SA, IA and IP1 calli, 13 out of 25 shoots) was 52% and the “shoots exhibiting high luciferase activity” value ([1]; 1 mM SA, 4 out of 16 shoots) was 25%. For the same molecule, the “shoots with luciferase activity (transposition frequency)” value ([1]; 1 mM SA, 27 out of 70 shoots) was 39%, the “luciferase activity in shoots regenerated from callus” value ([1]; tobacco callus IC, presence of SA) was “not detected” and the “luciferase activities of induced shoots versus uninduced shoots” value ([1]; tobacco line IK) was “slightly higher”. For the same molecule, the “shoots exhibiting luciferase activity out of shoots from SA-treated calli” value ([1]; tobacco line IM1) was 11 out of 24, the “shoots exhibiting luciferase activity out of shoots from SA-treated calli” value ([1]; tobacco line IN1) was 11 out of 20 and the “shoots exhibiting luciferase activity out of shoots from SA-treated calli” value ([1]; tobacco line IP) was 15 out of 17. For the same molecule, the “shoots exhibiting luciferase activity out of shoots from SA-treated calli” value ([1]; tobacco line IR1) was 12 out of 20, the “S: Percentage of Hyg R progeny that were LUC+” value (shortened to “S: Percentage”) ([2]; 1 mM SA, mean of tobacco lines IA, IM, IN, IP) was 29% and the “number of seedlings showing high luciferase activity” value (“number” for short) ([2]; 1 mM SA, of 1021 seedlings) was 2 seedlings. For the same molecule, the “S: Percentage” value ([2]; 1 mM SA, tobacco line IA) was 33%, the “G: Percentage of Hyg R progeny that exhibited high luciferase activity” value (“G: Percentage” below) ([2]; 1 mM SA, tobacco line IA (plant IA7)) was 0.4% and the “S: Percentage” value ([2]; 1 mM SA, tobacco line IM) was 11%. For the same molecule, the “G: Percentage” value ([2]; 1 mM SA, tobacco line IM (plant IM4)) was 0.4%, the “G: Percentage” value ([2]; 1 mM SA, tobacco line IN) was 0% and the “S: Percentage” value ([2]; 1 mM SA, tobacco line IN) was 9%. The “G: Percentage” value ([2]; 1 mM SA, tobacco line IP) was 0%, the “S: Percentage” value ([2]; 1 mM SA, tobacco line IP) was 62% and the “HygR seedlings exhibiting high luciferase activity out of seedlings screened” value ([2]; 5 mM SA, capsule B of plant IP9) was 12 out of 202. The “S: Percentage” value ([2]; 5 mM SA, mean of tobacco lines IA, IM, IN, IP) was 47%, the “number” value ([2]; 5 mM SA, of 1000 seedlings) was 7 seedlings and the “S: Percentage” value ([2]; 5 mM SA, tobacco line IA) was 60%. The “G: Percentage” value ([2]; 5 mM SA, tobacco line IA (plant IA6)) was 0.4%, the “S: Percentage” value ([2]; 5 mM SA, tobacco line IM) was 45% and the “G: Percentage” value ([2]; 5 mM SA, tobacco line IM (plant IM5)) was 0.8%. For the same molecule, the “G: Percentage” value ([2]; 5 mM SA, tobacco line IN) was 0%, the “S: Percentage” value ([2]; 5 mM SA, tobacco line IN) was 15% and the “S: Percentage” value ([2]; 5 mM SA, tobacco line IP) was 68%. The “G: Percentage” value ([2]; 5 mM SA, tobacco line IP (plant IP9)) was 1.6%, the “S: Percentage” value ([2]; 50 mM SA, mean of tobacco lines IA, IP) was 75% and the “number” value ([2]; 50 mM SA, of 32 seedlings) was 1 seedling. For the same molecule, the “S: Percentage” value ([2]; 50 mM SA, tobacco line IA) was 70%, the “G: Percentage” value ([2]; 50 mM SA, tobacco line IA (plant IA5)) was 3.7% and the “G: Percentage” value ([2]; 50 mM SA, tobacco line IP) was 0%. For the same molecule, the “S: Percentage” value ([2]; 50 mM SA, tobacco line IP) was 100%, the “effect of SA concentration on frequency of LUC+ seedlings / transposition events in floral tissues” value ([2]; 1, 5, 50 mM SA) was “dose-dependent manner” and the “LUC assay: LUC+ seedlings (activity class)/HygR seedlings assayed” value ([2]; plant 1M5, flowers sprayed 5 mM SA, R1 progeny, capsules A-E in successive rows) was 30+152. For the same molecule, the “seedlings exhibiting luciferase activity” value ([2]; plants exposed to SA (1, 5 or 50 mM) pooled, 785 out of 2053 seedlings) was 38%, the “number” value ([2]; plants exposed to SA (1, 5 or 50 mM) pooled, of 2053 seedlings) was 10 seedlings and the frequency of fruiting ([3]; 50 mM SA sprayed on flowering tissues, watered off after 2 hours) was “marked decrease”. The “germination frequency of R1 progeny” value ([3]; 50 mM SA, plants IA5 and IP6) was “low germination frequencies”.
